According to patent publication US20260007634A1, “PHARMACEUTICAL COMPOSITIONS FOR THE TREATMENT OF ALLERGIC DISEASES” (KINKI UNIVERSITY, priority 2022, published 2026):

What was measured:
IL-6 [1] = experiment: LPS-stimulated IL-6 secretion in B cells (ELISA); format: cell-based, mouse; conditions: 10 μM compound, 10 μg/mL LPS 2 days, control 9.46, LPS 246.13
Experimental: Mouse B cells were used to examine the inhibition of compounds on IL-6 secretion in LPS stimulation.
Mouse B cells were cultured in RPMI 1640 medium for 1 day. Then, 10 μM mangiferin 8a and 10 μM norathyriol were added to B cells, and after 1 day of culture, 10 μg/mL of LPS was added to each, followed by 2 days of culture.
Thus, the samples were divided into “control” with no treatment, “10 μg/mL LPS+10 μM mangiferin 8a” to which 10 μg/mL LPS and 10 μM mangiferin 8a were added, and “10 μg/mL LPS+10 μM norathyriol” to which 10 μg/mL LPS and 10 μM norathyriol were added and only 10 μg/mL LPS was added (“10 μg/L LPS”).
After these samples were incubated for 2 days, the culture supernatant was collected and IL-6 secretion was measured by enzyme-linked immunosorbent assay (ELISA). The mouse IL-6 ELISA kit (R&D) was used for this measurement.

TNFα = experiment: LPS-stimulated TNFα secretion in macrophages (ELISA); format: cell-based, mouse; conditions: 10 μM compound, 10 μg/mL LPS 2 days, control 24.11, LPS 421.13
Experimental: Mouse macrophages were used to examine the inhibition of compounds on TNFα secretion in LPS stimulation.
Mouse macrophages were cultured in RPMI 1640 medium for 1 day. Then, 10 μM mangiferin 8a and 10 μM norathyriol were added to macrophages, and after 1 day of culture, 10 μg/mL of LPS was added to each, followed by 2 days of culture.
Thus, the samples were divided into “control” with no treatment, “10 μg/mL LPS+10 μM mangiferin 8a” to which 10 μg/mL LPS and 10 μM mangiferin 8a were added, and “10 μg/mL LPS+10 μM norathyriol” to which 10 μg/mL LPS and 10 μM norathyriol were added and only 10 μg/mL LPS was added (“[…] LPS”).
After these samples were incubated for 2 days, the culture supernatant was collected and TNFα secretion was measured by enzyme-linked immunosorbent assay (ELISA). The mouse TNFα ELISA kit (R&D) was used for this measurement.

IgE antibody = experiment: Serum IgE antibody ELISA, atopic dermatitis mice; format: in vivo, mouse; conditions: day 7, topical application, control 1214, vehicle (MC903) 2588
Experimental: (§1) MC903 at 2 nM was applied to the right auricle of a 6-week-old male Balb/c (Japan SLC Inc.). Starting 8 h later, 5% norathyriol aqueous solution (1 mL of ethanol containing […] of norathyriol), betamethasone ointment, and delgocitinib ointment were applied to the auricle for 7 days. The measurement of auricular skin swelling was calculated by calipers. The day on which the first application of the compound was made was defined as day 0. Betamethasone and delgocitinib are currently in clinical use in atopic dermatitis and were used as control drugs in this example.
Serum was collected from mice on day 7 in Example 1, and IgE antibody production was measured by enzyme-linked immunosorbent assay (ELISA). This assay was performed using a mouse IgE antibody ELISA kit (R&D).

NIK = biological target: T1, NIK (Mus musculus, UniProt Q9WUL6); experiment: LPS-induced NIK activation in B cells (Western blotting, phospho-NIK); format: cell-based; conditions: 10 μM compound 23 h, then 10 μg/mL LPS 1 h
T1 construct: Proteins were extracted with cell lysate and used as samples; endogenous in cells; host or cells: primary splenic B cells from 6-week-old male Balb/c mice
T1 sequence (Q9WUL6 whole entry): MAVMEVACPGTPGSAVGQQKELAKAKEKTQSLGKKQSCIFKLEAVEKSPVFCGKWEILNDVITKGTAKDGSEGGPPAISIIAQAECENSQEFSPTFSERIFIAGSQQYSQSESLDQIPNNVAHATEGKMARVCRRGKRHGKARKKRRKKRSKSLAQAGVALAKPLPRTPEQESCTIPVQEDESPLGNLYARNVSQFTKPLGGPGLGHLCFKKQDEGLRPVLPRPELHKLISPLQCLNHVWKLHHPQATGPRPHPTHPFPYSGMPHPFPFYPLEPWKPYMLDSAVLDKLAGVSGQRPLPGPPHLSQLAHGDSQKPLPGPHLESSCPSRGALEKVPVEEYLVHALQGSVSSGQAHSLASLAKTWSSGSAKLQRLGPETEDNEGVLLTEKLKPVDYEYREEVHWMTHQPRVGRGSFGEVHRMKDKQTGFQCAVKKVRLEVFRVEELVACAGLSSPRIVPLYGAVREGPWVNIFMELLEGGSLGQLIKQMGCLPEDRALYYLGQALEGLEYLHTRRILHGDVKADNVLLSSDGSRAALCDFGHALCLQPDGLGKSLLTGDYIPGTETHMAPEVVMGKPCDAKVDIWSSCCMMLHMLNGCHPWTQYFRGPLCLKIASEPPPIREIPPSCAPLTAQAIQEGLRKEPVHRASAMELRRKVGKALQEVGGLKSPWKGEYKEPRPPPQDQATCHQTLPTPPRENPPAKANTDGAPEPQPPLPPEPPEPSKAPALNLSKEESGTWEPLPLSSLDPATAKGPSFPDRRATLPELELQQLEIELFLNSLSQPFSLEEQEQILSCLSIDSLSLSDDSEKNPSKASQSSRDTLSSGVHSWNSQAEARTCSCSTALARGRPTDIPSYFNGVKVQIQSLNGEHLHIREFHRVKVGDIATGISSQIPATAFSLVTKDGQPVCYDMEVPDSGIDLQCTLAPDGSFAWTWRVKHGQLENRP
Experimental: Spleens were harvested from 6-week-old male Balb/c mice and B cells were isolated. After isolation, the cells were seeded in […] dish and cultured in RPMI 1640 medium for 1 day and used as control. In addition, B cells were seeded into 100 mm^2 dish, and after 1 day of culture, 10 μg/mL LPS was added and cultured for 1 h. Furthermore, B cells were seeded in […] dish, and after 1 day of culture, 10 μM mangiferin 8a and 10 μM norathyriol were added to B cells, and after 23 h, 10 μg/mL LPS was added to each, and the cells were incubated for 1 h. All were incubated at 37° C. and 5% CO2.
Proteins were extracted with cell lysate and used as samples. Each sample was transferred to a PVDF membrane after SDSPAGE and assayed with anti-phospho-NIK, anti-NIK, anti-NF-κB p52, anti-NF-κB p65 and anti-Lamin antibodies.
The antibody species is indicated in the vertical direction. Specifically, in the case of anti-phospho-NIK antibody (described as “Phospho-NIK”), anti-NIK antibody (described as “NIK”), anti-NF-κB p52 antibody (described as “NF-κB p52 nuclear”), anti-NF-κB p65 antibody (described as “NF-κB p65 nuclear”) and anti-Lamin antibody (described as “Lamin”).

IL-5 = experiment: Auricular tissue IL-5 ELISA, atopic dermatitis mice; format: in vivo, mouse; conditions: day 7, topical application, control 15, vehicle 32
Experimental: as §1
The mouse IL-5 ELISA kit (R&D) was used for this measurement.

Th2 cells = experiment: Th2 cell activation in inflammation-induced mouse model (IL-4 flow cytometry); format: in vivo; conditions: DBA/1J mice, Freund's complete adjuvant + bovine type2 collagen; oral 10 mg/kg daily 20 days; thymus cells; vs vehicle group
Experimental: Equal volume mixtures of Freund's complete adjuvant and Bovine type2 collagen were administered to 6-week-old male DBA/1J mice (Japan SLC Inc.) at 0.1 mL (day 0 of the study). 21 days later, DBA/1J mice were again injected with 0.1 mL of the above mixture for secondary immunization. After the second immunization, mice were orally treated with 10 mg/kg of mangiferin 8a and 10 mg/kg of norathyriol daily for 20 days. 20 days later, thymus glands were harvested from mice and stained with anti-CD4 and anti-IL-4 antibodies, which are Th2 cell markers, and expression of IL-4 (CD4 positive) was measured using BD LSRFortessa.

[2] = test system: B cells collected from mice; experiment: LPS-induced differentiation into plasma cells (CD138 flow cytometry); format: cell-based, mouse; conditions: 10 μM compound, 10 μg/mL LPS, 10 days; vs LPS-added group
Experimental: B cells collected from mice were cultured in RPMI 1640 medium for 1 day. Then, 10 μM mangiferin 8a and 10 μM norathyriol were added to B cell, and after 1 day of culture, 10 μg/mL of LPS was added, followed by 10 days of culture. After 10 days of culture, cells were stained with anti-CD138 antibody, a marker of plasma cells, and CD138 expression was measured using BD LSRFortessa.

IL-6 [3] = experiment: LPS-stimulated IL-6 secretion in macrophages (ELISA); format: cell-based, mouse; conditions: 10 μM compound, 10 μg/mL LPS 2 days, control 13.13, LPS 321.13
Experimental: Mouse macrophages were used to examine the inhibition of compounds on IL-6 secretion in LPS stimulation.
Mouse macrophages were cultured in RPMI 1640 medium for 1 day. Then, 10 μM mangiferin 8a and 10 μM norathyriol were added to macrophages, and after 1 day of culture, 10 μg/mL of LPS was added to each, followed by 2 days of culture. After these samples were incubated for 2 days, the culture supernatant was collected and IL-6 secretion was measured by enzyme-linked immunosorbent assay (ELISA). The mouse IL-6 ELISA kit (R&D) was used for this measurement.

phospho-NIK band (immunoblotting) (NIK): fainter
SMILES: O=c1c2cc(O)c(O)cc2oc2cc(O)cc(O)c12 [norathyriol, 1,3,6,7-tetrahydroxyxanthone]
IL-6 secretion (IL-6 [1]): 56.13 pg/mL | TNFα secretion (TNFα): 68.13 pg/mL | amount of IgE antibody (IgE antibody): 1692 ng/mL | IL-5 secretion (IL-5): 14 pg/mL | IL-4 expression (CD4 positive) (Th2 cells): markedly reduced | CD138 expression [2]: significantly decreased CD138 expression | IL-6 secretion (IL-6 [3]): 64.13 pg/mL
